How the values were obtained:
Assay in all cases: cells
Parameters in all cases: Anti-proliferation, 10-point dose response, CellTiter-Glo luminescence (MTT stated for KM12(Luc)), GI50 fitted in Prism
DLD-1 = settings: Homo sapiens, DLD-1, 72 h, read-out: GI50 (µM) a
GIST-T1 = settings: Homo sapiens, GISTT1, 72 h, read-out: GI50 (µM) a
HCC70 = settings: Homo sapiens, HCC70, 72 h, read-out: GI50 (µM) a
J82 = settings: Homo sapiens, J82, 72 h, read-out: GI50 (µM) a
MDA-MB-231 = settings: Homo sapiens, MDA-MB-231, 72 h, read-out: GI50 (µM) a
NCI-H1437 = settings: Homo sapiens, NCI-H1437, 72 h, read-out: GI50 (µM) a
NCI-H1666 = settings: Homo sapiens, NCI-H1666, 72 h, read-out: GI50 (µM) a
NCI-H2009 = settings: Homo sapiens, NCI-H2009, 72 h, read-out: GI50 (µM) a
NCI-H2087 = settings: Homo sapiens, NCI-H2087, 72 h, read-out: GI50 (µM) a
NCI-H2228 = settings: Homo sapiens, NCI-H2228, 72 h, read-out: GI50 (µM) a
PANC-1 = settings: Homo sapiens, PANC-1, 72 h, read-out: GI50 (µM) a
RS4-11 = settings: Homo sapiens, RS4-11, 72 h, read-out: GI50 (µM) a

COc1cc(CCc2cc(NC(=O)c3ccc(N4C[C@@H](C)N[C@@H](C)C4)cc3)n[nH]2)cc(OC)c1 [AZD4547]
GI50 (DLD-1): 27.5 µM | GI50 (GIST-T1): 1.09 µM | GI50 (HCC70): 16.6 µM | GI50 (J82): 9.54 µM | GI50 (MDA-MB-231): 20.9 µM | GI50 (NCI-H1437): 40.3 µM | GI50 (NCI-H1666): 10.8 µM | GI50 (NCI-H2009): 50 µM | GI50 (NCI-H2087): 27.4 µM | GI50 (NCI-H2228): 17.2 µM | GI50 (PANC-1): 8.65 µM | GI50 (RS4-11): 3.24 µM
